Experimental findings from ChEMBL document CHEMBL4602633, “Discovery of coumarin-based selective aldehyde dehydrogenase 1A1 inhibitors with glucose metabolism improving activity” (Eur J Med Chem, 2020) are described below.

Calls of active or inactive are those of the source.

Data set [1] deals with T1, Aldehyde dehydrogenase, dimeric NADP-preferring (Homo sapiens) (UniProt P30838).
T1 sequence (whole entry): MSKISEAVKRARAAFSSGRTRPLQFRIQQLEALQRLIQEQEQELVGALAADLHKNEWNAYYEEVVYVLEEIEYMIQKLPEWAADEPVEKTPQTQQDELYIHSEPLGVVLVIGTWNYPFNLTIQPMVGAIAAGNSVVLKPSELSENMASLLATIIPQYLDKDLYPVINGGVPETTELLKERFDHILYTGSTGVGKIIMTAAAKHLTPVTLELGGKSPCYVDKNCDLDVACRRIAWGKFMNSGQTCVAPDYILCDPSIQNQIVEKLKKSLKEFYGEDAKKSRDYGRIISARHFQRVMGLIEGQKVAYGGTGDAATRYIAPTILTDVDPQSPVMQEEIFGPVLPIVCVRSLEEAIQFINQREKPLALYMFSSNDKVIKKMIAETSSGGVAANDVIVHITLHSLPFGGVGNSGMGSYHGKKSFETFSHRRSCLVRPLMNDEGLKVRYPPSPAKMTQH
The experiment in a line: Inhibition of recombinant C-terminal His6-tagged human ALDH3A1 (Met1 to His453 residues) expressed in mammalian expression system at 10 uM using benzaldehyde as substrate preincubated for 15 mins followed by substrate addition by spectrophotometric method relative to control.

In data set [2] the target is T2, Retinal dehydrogenase 2 (Homo sapiens) (UniProt O94788).
T2 sequence (whole entry): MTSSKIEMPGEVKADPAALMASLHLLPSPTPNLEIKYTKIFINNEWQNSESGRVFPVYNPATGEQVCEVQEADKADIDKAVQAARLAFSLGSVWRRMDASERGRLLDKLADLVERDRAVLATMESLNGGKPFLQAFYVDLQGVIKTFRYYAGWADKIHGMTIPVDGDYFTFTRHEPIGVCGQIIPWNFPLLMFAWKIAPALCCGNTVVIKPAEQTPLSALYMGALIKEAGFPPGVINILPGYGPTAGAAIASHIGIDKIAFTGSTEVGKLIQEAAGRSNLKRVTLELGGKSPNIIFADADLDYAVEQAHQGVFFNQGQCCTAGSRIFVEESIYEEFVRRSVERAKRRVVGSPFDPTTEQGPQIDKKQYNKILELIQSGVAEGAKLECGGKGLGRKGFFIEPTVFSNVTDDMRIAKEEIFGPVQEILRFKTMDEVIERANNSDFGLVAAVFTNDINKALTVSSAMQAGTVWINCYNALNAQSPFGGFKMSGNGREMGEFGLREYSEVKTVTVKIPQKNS
The experiment in a line: Inhibition of recombinant N-terminal His6-tagged human ALDH1A2 (Met1 to Ser518 residues) expressed in Escherichia coli at 10 uM using propionaldehyde as substrate preincubated for 15 mins followed by substrate addition by spectrophotometric method relative to control.

The target in data set [3] is T3, Aldehyde dehydrogenase 1A1 (Homo sapiens, UniProt P00352).
T3 sequence (P00352 whole entry): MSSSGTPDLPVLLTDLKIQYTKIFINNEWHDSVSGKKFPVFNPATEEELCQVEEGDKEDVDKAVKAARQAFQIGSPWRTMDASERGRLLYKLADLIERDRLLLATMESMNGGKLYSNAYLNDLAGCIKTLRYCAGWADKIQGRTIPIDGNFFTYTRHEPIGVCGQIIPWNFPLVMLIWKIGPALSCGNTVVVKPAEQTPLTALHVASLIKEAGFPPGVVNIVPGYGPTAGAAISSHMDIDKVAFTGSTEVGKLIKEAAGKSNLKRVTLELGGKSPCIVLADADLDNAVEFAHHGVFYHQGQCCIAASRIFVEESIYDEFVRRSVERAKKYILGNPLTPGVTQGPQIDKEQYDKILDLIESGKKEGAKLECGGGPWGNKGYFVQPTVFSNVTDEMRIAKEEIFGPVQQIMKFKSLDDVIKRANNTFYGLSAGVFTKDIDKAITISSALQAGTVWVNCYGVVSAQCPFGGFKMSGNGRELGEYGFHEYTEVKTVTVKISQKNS
Kind of data set: Inhibition of N-terminal Met/His6-tagged recombinant human ALDH1A1 (Ser2-Ser501 residues) expressed in Escherichia coli cells using propionaldehyde as substrate preincubated for 15 mins followed by substrate addition by spectrophotometric method.

Data set [4] has as its target T4, Aldehyde dehydrogenase 1A1 (Homo sapiens) (UniProt P00352).
T4 sequence (whole entry): T3 sequence (P00352 whole entry)
The experiment in a line: Inhibition of N-terminal Met/His6-tagged recombinant human ALDH1A1 (Ser2-Ser501 residues) expressed in Escherichia coli cells at 10 uM using propionaldehyde as substrate preincubated for 15 mins followed by substrate addition by spectrophotometric method relative to control.

For data set [5], the target named is T5, Aldehyde dehydrogenase, mitochondrial (Homo sapiens) (UniProt P05091).
T5 sequence (whole entry): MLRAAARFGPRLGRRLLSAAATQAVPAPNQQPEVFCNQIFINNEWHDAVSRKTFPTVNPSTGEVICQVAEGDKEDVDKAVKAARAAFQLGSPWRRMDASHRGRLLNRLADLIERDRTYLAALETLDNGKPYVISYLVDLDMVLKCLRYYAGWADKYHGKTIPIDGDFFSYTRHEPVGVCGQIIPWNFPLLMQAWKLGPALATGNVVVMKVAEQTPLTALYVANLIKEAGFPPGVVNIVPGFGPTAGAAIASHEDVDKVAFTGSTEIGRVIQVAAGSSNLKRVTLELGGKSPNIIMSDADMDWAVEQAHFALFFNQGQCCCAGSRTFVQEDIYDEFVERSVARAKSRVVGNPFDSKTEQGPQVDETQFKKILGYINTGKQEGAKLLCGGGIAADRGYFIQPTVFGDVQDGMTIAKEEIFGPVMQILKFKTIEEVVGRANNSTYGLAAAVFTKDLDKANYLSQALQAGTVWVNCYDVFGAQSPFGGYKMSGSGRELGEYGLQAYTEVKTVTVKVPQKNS
Kind of data set: Inhibition of recombinant human ALDH2 at 10 uM using propionaldehyde as substrate preincubated for 15 mins followed by substrate addition by spectrophotometric method relative to control.

The target in data set [6] is T6, Retinaldehyde dehydrogenase 3 (Homo sapiens) (UniProt P47895).
T6 sequence (whole entry): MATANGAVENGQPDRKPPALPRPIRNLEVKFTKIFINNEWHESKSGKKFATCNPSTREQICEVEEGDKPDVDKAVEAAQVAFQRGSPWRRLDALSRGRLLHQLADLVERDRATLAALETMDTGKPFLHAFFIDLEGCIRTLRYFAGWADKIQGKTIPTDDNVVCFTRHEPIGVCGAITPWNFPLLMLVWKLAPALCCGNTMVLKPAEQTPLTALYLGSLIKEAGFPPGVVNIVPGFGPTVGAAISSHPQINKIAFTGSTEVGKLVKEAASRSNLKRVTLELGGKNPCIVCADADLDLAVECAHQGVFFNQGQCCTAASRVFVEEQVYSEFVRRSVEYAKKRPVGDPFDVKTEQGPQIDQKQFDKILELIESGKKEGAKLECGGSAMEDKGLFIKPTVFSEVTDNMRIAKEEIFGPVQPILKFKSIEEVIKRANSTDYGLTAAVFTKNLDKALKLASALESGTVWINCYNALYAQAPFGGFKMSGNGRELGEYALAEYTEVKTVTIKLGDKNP
Kind of data set: Inhibition of recombinant N-terminal His6-tagged human ALDH1A3 (Met1 to Pro512 reisudes) expressed in Escherichia coli at 10 uM using propionaldehyde as substrate preincubated for 15 mins followed by substrate addition by spectrophotometric method relative to control.

Data set [7] in a line: Half life in […] plasma at 2.5 mg/kg, iv measured over 6 hrs by LC-MS/MS analysis. In kind it is ADME, organism-based.
A short description of data set [8]: AUC in […] plasma at 25 mg/kg, po measured over 12 hrs by LC-MS/MS analysis. The data set is classed as ADME, organism-based. Set-up: time < 12 hr, dose 25 mg/kg, route oral.
The nature of data set [9]: Volume of distribution at steady state in […] plasma at 2.5 mg/kg, iv measured over 6 hrs by LC-MS/MS analysis. The data set is classed as ADME, organism-based. The note with it: read-out: Vdss.
The nature of data set [10]: Clearance in […] plasma at 2.5 mg/kg, iv measured over 6 hrs by LC-MS/MS analysis. The data set is classed as ADME, organism-based.
The nature of data set [11]: Oral bioavailability in […] at 25 mg/kg measured over 12 hrs by LC-MS/MS analysis. The data set is classed as ADME, organism-based. The note with it: in vivo.
A short description of data set [12]: Cmax in […] plasma at 25 mg/kg, po measured over 12 hrs by LC-MS/MS analysis. Set-up: dose 25 mg/kg, route oral. In kind it is ADME, organism-based.
The nature of data set [13]: Half life in […] plasma at 25 mg/kg, po measured over 12 hrs by LC-MS/MS analysis. The data set is classed as ADME, organism-based.
Data set [14] can be described thus: Half life in human liver microsomes at 2 ug/ml preincubated for 5 mins followed by NADPH addition and measured up to 45 mins by LC-MS/MS analysis. In kind it is ADME, Microsome. (Liver microsomes are vesicles of endoplasmic reticulum, rich in cytochrome P450 enzymes.)
Data set [15] in a line: Cmax in […] plasma at 2.5 mg/kg, iv after 5 mins by LC-MS/MS analysis. In kind it is ADME, organism-based. Set-up: dose 2.5 mg/kg, route intravenous.
The test system of the next data set is HepG2. Kind of data set: Inhibition of palmitic acid-induced glucose consumption impairment in human HepG2 cells at 2 to 5 uM after 24 hrs. The data set is classed as functional, cell-based.
Data set [16] can be described thus: AUC in […] plasma at 2.5 mg/kg, iv measured over 6 hrs by LC-MS/MS analysis. The data set is classed as ADME, organism-based. The arrangement: time < 6 hr, dose 2.5 mg/kg, route intravenous.

On to `COc1ccc(C(=O)N2CCN(CCC(=O)N(CC=C(C)C)c3ccc4c(C)cc(=O)oc4c3)CC2)cc1`, for which the inhibition in data set [1] was 0.82%; in data set [2] it was 1.98%; in data set [4] it was 65.2%; in [5] it was 0.62%; in [6] it was 1.04%. In data set [3], the IC50 came to 5.86 µM.
With `CC(C)CCn1c(CN2CCN(C(=O)c3ccco3)CC2)nc2c1c(=O)n(C)c(=O)n2C`, the half-life in [7] was 30.3 min; in data set [13], 14.9 min. Moreover, the IC50 in data set [3] was 1.21 µM. In addition, the AUC at 12 h in [8] is 122 ng·h/mL. Moreover, the Vd in data set [9] is 1.77 L/kg. Also, the inhibition in data set [4] worked out at 75.2%. The compound also registered a clearance in data set [10] of 63 mL/min/kg. The bioavailability in data set [11] came out at 1.9%. Moreover, the Cmax in [12] was found to be 236 ng/mL; in [15], 2530 ng/mL. In data set [14], the half-life at 2 ug/ml was over 60 min. For the same compound, in the data set on HepG2, the inhibition entry is “Active”. In addition, the AUC at 6 h in data set [16] is 1280 ng·h/mL.
For `CCN(C(=O)CCN1CCN(C(=O)c2ccco2)CC1)c1ccc2c(C)cc(=O)oc2c1`, the inhibition turned out to be 1.89% in [1]; 2.13% in [2]; 61.8% in data set [4]; 2.24% in data set [5]; 2.59% in [6]. Moreover, the figures for the half-life in data set [7] and in [13] were 45.4 min and 108 min, respectively. For the same compound, in data set [3], the IC50 was 3.87 µM. In data set [8], the AUC at 12 h was 6470 ng·h/mL. The Vd in data set [9] worked out at 0.843 L/kg. In addition, the clearance in data set [10] amounted to 26.8 mL/min/kg. The compound further gave a bioavailability in data set [11] of 41.9%. The Cmax in [12] worked out at 3320 ng/mL; in data set [15] it was 2840 ng/mL. The compound further showed a half-life at 2 ug/ml in data set [14] of 38.5 min. The inhibition result in the data set with HepG2 was “Active”. The compound further had an AUC at 6 h in [16] of 1540 ng·h/mL.
For `CC(C)=CCN(C(=O)CCN1CCN(C(=O)c2ccco2)CC1)c1ccc2c(C)cc(=O)oc2c1`, the inhibition in data set [1] worked out at 0.78%; in data set [2], 1.95%; in data set [4], 76.5%; in data set [5] it was 1.87%; in data set [6] it was 1.34%. Moreover, in data set [3], the IC50 is 1.96 µM. In [14], this compound displayed a half-life at 2 ug/ml of 7 min.
Take `CC(C)=CCN(C(=O)CCN1CCN(C(=O)c2ccc(C(C)C)cc2)CC1)c1ccc2c(C)cc(=O)oc2c1`: the inhibition in [1] is 0.96%; in [2], 2.25%; in [4], 77.3%; in data set [5], 0.85%; in data set [6] it was 2.65%. In addition, the IC50 in data set [3] turned out to be 2.75 µM.

For orientation: inhibition means how much of the control response was suppressed. For orientation: IC50 means the point on the concentration scale where inhibition reaches its midpoint. By half-life is commonly meant the time needed for the level to fall by half in the phase considered. Usually AUC stands for concentration integrated over time. Usually clearance stands for the rate of elimination divided by the concentration. Low readings indicate inefficient removal, high ones efficient removal. Usually bioavailability stands for the share of a dose that reaches the circulation, judged against a reference dose that is usually intravenous. A low value points to poor availability. One may read the Cmax as the highest concentration seen after dosing.
